Source: patent publication US20230381196A1, “COMPOSITIONS COMPRISING BISFLUOROALKYL-1,4-BENZODIAZEPINONE COMPOUNDS FOR TREATING ADENOID CYSTIC CARCINOMA” (AYALA PHARMACEUTICALS INC., priority 2020, published 2023)

How the values were obtained:
[1] = tested on: NOTCH signaling (NICD1, HES1, HESS, HEY1) in ACC83 cells; experiment: NICD1 and NOTCH downstream targets by IHC and western blot; format: cell-based, Human; conditions: 10 nM
Method: (§1) FIG. 10B. Effect of Compound (1) monotherapy on NICD1 in ACC cell lines. NICD1 immunohistochemical staining of ACC83 (left) or ACC112 (right) cells treated with either 10 nM Compound (1) or DMSO (control) for 14 days.
(§2) FIG. 10C. Effect of Compound (1) monotherapy on NOTCH downstream targets in ACC cell lines. Cell lysates were collected at day 14 from Compound (1)- or DMSO (control)-treated ACC83 and ACC112 cells and analyzed by western blot for the expression of NICD1, HES1, HESS and HEY1 proteins, with GAPDH used a loading control.
(§3) Methods: The naturally immortalized sublingual gland derived Human ACC cell line ACC83 and the Human HPV-transformed submaxillary gland derived cell line ACC112 were treated with Compound (1) at 10 nM concentration or DMSO (control) for 14 days. ACC83 cells were cultured in RPMI 1640 medium supplemented with 10% FBS, 10,000 u/ml penicillin-streptomycin and 1 ml L-glutamine. ACC112 cell line was additionally supplemented with 20 ng/ml epidermal growth factor, 400 ng/ml hydrocortisone and 5 μg/ml insulin. Cell viability relative to day 0 was determined using an Alamar Blue assay on days 7, 11 and 14. Cell lines were stained with NICD1 (Cell Signaling, 4147S, 1:200), HES1 (Abcam, ab71559, 1:400), HEY1 (Millipore, AB5714, 1:200), and HESS (Novus Biologicals, NBP241305, 1:200) antibodies using iView DAB detection and the Ventana BenchMark XT staining system (Roche). Area and intensity of diaminobenzidine (DAB) signal was quantified using IHC Profiler color deconvolution plugin within ImageJ software.

[2] = tested on: NOTCH signaling (NICD1, HES1, HESS, HEY1) in ACC112 cells; experiment: as above; format: cell-based, Human; conditions: 10 nM
Method: as §1, §2, §3

ACC83 cells [3] = experiment: Boyden chamber invasion assay; format: cell-based, Human; conditions: 10 nM for 14 days, 24 h transwell
Method: FIG. 11C. Effect of Compound (1) monotherapy on cell invasion in ACC83 cell line. ACC83 cells were treated with either 10 nM Compound (1) or DMSO (control) for 14 days. Cells were then placed transwell chambers and after 24 h, the membranes were stained with crystal violet. Cells that had migrated through the membrane were photographed (left panel) and counted. The average number of ACC83 cells per field that migrated through the membrane are shown in a bar plot (right panel).
Methods: A wound healing assay was carried out to assess migration potential of ACC83 and ACC112 cells. Cells were cultured in triplicate in 6-well plates (1×10^6 cells per well) containing culture inserts (Ibidi). On reaching 90% confluence, the inserts were removed, and cells were cultured for 12 hr. Gap area in individual wells was determined using ImageJ. The gap area percentage was calculated as the gap area at 12 hr relative to the gap area at 0 hr. A Boyden chamber assay was carried out to assess the invasion potential of ACC83 and ACC112 cells. […] After 24 h incubation, the cells in the upper chamber were carefully removed with cotton swab, and the cells that had invaded through Matrigel were stained with 1DiffQuick, photographed at 40× magnification and quantified across three random fields.

ACC83 cells [4] = experiment: Wound healing (migration) assay; format: cell-based, Human; conditions: 10 nM for 14 days, vs untreated cells
Method: (§4) FIG. 11A. Effect of Compound (1) monotherapy on cell migration in ACC83 cell line. ACC83 cells were treated with either 10 nM Compound (1) or DMSO (control) for 14 days. Cells were then plated in wells containing inserts and allowed to attach for 12 h. The inserts were removed, and the gap was photographed at 0 h and at 12 h (left panel).
(§5) Methods: A wound healing assay was carried out to assess migration potential of ACC83 and ACC112 cells. Cells were cultured in triplicate in 6-well plates (1×10^6 cells per well) containing culture inserts (Ibidi). On reaching 90% confluence, the inserts were removed, and cells were cultured for 12 hr. Gap area in individual wells was determined using ImageJ. The gap area percentage was calculated as the gap area at 12 hr relative to the gap area at 0 hr. A Boyden chamber assay was carried out to assess the invasion potential of ACC83 and ACC112 cells. Cells were cultured (1×10^4 cells per well) in triplicate into the upper chamber of Matrigel-coated transwell chambers (8-μm pore size, Corning) in serum-free medium, while 10% FBS medium was added to the bottom chamber to stimulate invasion. After 24 h incubation, the cells in the upper chamber were carefully removed with cotton swab, and the cells that had invaded through Matrigel were stained with 1DiffQuick, photographed at 40× magnification and quantified across three random fields.

Notch3 = experiment: Inhibition of Constitutive Notch Signaling; format: cell-based
ACC112 cells = experiment: Wound healing (migration) assay; format: cell-based, Human; conditions: 10 nM for 14 days, vs untreated cells
Method: as §4, with “11B.” for “11A.”, “ACC112” for “ACC83”
as §5

[5] = Tolerability of monotherapy and combination therapy in naive mice; conditions: Compound (1) 3.0 mg/kg PO qdx4
Method: Naïve mice were randomly divided into 17 groups (n=5). Control group was administered vehicle once every day for four consecutive days (qdx4). […] Dosing was initiated on Day 0. Animal weight was measured every day for two weeks.

T-ALL tumors = experiment: Tumor growth in mice harboring T-ALL tumors; format: in vivo
Method: FIG. 7A. Inhibition of tumor growth with 6 mg/kg Compound (1). Mice harboring T-ALL tumors were administered Compound (1) 6 mg/kg, QDx3 per week, Days 15-17; 22-24; 29-31, Nirogacestat 150mg/kg, QD Days 15-28, or vehicle using the protocol described, and tumor volume was measured 15-60 days post-baseline.
FIG. 7B. Inhibition of tumor growth with 4 mg/kg Compound (1). […]

For CN1C(=O)[C@@H](NC(=O)[C@H](CCC(F)(F)F)[C@H](CCC(F)(F)F)C(N)=O)N=C(c2ccccc2)c2ccccc21 [Compound (1), (2R,3S)—N-((3S)-1-methyl-2-oxo-5-phenyl-2,3-dihydro-1H-1,4-benzodiazepin-3-yl)-2,3-bi s(3,3,3-trifluoropropyl)succinamide], the “NICD1 (Western blotting and IHC)” value ([1]; 14 days, vs DMSO) was “reduction in NICD1”, the “expression levels of NOTCH downstream targets HES1, HESS and HEY1” value ([1]; day 14, western blot) was “substantially downregulated expression levels” and the “NICD1 (Western blotting and IHC)” value ([2]; 14 days, vs DMSO) was “reduction in NICD1”. For the same compound, the “expression levels of NOTCH downstream targets HES1, HESS and HEY1” value ([2]; day 14, western blot) was “substantially downregulated expression levels”, the cell invasion (ACC83 cells [3]) was “substantially decreased the invasion” and the “cell migration (relative gap width at 12 h)” value (ACC83 cells [4]) was “significantly inhibited the migration”. The IC50 (Notch3) was 3.4 nM, the “cell migration (relative gap width at 12 h)” value (ACC112 cells) was “significantly inhibited the migration” and the tolerability [5] was “good tolerability”. The tumor volume (T-ALL tumors; 4 mg/kg QDx3 per week, Days 18-33, compared to vehicle and Crenigacestat 6 mg/kg QD Days 18-33) was “inhibited the increase in tumor volume” and the tumor volume (T-ALL tumors; 6 mg/kg QDx3 per week, Days 15-17, 22-24, 29-31, compared to vehicle and Nirogacestat 150 mg/kg QD Days 15-28) was “inhibited the increase in tumor volume”.
